Measured values taken from ChEMBL document CHEMBL2074169, “Contribution of organic anion transporting polypeptide to uptake of its possible substrates into rat hepatocytes” (J Pharmacol Exp Ther, 1999).
Counter-ions that a name gives are not always drawn.

T1: Solute carrier organic anion transporter family member 1A1 (Rattus norvegicus, UniProt P46720)
T1 sequence (P46720 whole entry): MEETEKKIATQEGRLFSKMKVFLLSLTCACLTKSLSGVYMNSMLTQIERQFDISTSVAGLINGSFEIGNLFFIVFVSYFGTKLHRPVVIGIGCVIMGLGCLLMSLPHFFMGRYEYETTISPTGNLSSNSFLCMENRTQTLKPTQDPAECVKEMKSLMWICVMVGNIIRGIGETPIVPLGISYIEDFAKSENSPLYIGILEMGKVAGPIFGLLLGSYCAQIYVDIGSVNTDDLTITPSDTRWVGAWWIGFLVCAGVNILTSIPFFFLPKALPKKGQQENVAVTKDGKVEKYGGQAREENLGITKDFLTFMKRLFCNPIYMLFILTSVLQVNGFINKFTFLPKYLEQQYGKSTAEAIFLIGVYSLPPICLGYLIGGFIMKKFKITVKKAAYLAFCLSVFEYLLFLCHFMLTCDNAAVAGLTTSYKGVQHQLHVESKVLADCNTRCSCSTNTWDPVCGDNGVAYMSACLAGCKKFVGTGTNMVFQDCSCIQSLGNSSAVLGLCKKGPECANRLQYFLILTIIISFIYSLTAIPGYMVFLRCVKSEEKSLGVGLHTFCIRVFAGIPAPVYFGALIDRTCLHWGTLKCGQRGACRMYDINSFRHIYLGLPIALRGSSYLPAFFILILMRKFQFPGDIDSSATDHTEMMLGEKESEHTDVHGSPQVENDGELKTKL

B1: Solute carrier organic anion transporter family member 1A1 (Rattus norvegicus) (protein)
chain: MEETEKKIATQEGRLFSKMKVFLLSLTCACLTKSLSGVYMNSMLTQIERQFDISTSVAGLINGSFEIGNLFFIVFVSYFGTKLHRPVVIGIGCVIMGLGCLLMSLPHFFMGRYEYETTISPTGNLSSNSFLCMENRTQTLKPTQDPAECVKEMKSLMWICVMVGNIIRGIGETPIVPLGISYIEDFAKSENSPLYIGILEMGKVAGPIFGLLLGSYCAQIYVDIGSVNTDDLTITPSDTRWVGAWWIGFLVCAGVNILTSIPFFFLPKALPKKGQQENVAVTKDGKVEKYGGQAREENLGITKDFLTFMKRLFCNPIYMLFILTSVLQVNGFINKFTFLPKYLEQQYGKSTAEAIFLIGVYSLPPICLGYLIGGFIMKKFKITVKKAAYLAFCLSVFEYLLFLCHFMLTCDNAAVAGLTTSYKGVQHQLHVESKVLADCNTRCSCSTNTWDPVCGDNGVAYMSACLAGCKKFVGTGTNMVFQDCSCIQSLGNSSAVLGLCKKGPECANRLQYFLILTIIISFIYSLTAIPGYMVFLRCVKSEEKSLGVGLHTFCIRVFAGIPAPVYFGALIDRTCLHWGTLKCGQRGACRMYDINSFRHIYLGLPIALRGSSYLPAFFILILMRKFQFPGDIDSSATDHTEMMLGEKESEHTDVHGSPQVENDGELKTKL

Columns and labels:
[1] = molecular target: T1, Solute carrier organic anion transporter family member 1A1; test: (§1) TP_TRANSPORTER: uptake in Oatp1-expressing COS-7 cells; format: functional, cell-based; details: monkey
[2] = substrate: C[C@]12CC[C@@H]3c4ccc(O)cc4CC[C@H]3[C@@H]1CC[C@@H]2O[C@@H]1O[C@H](C(=O)O)[C@@H](O)[C@H](O)[C@H]1O; test: as §1; format: functional, cell-based

Row | Molecule | Activity [1] | Km [2]
1 | CNc1nc2c(Cc3cccnc3)c(C)c(OS(=O)(=O)O)c(C)c2s1 [E3040 SULFATE] | substrate [+] | –
2 | C[C@]12CC[C@@H]3c4ccc(OS(=O)(=O)O)cc4CC[C@H]3[C@@H]1CCC2=O [ESTRONE SULFURIC ACID] | substrate [+] | –
3 | B1 | – | 20.4 µM
